# Data: patent US20250073240A1, “NEW TREATMENT” (Verona Pharma PLC, priority 2023, published 2025)
# Key:
# Assay type in all cases: in vivo, human
# [1] = system: patients with moderate to severe COPD; assay: Phase 3 clinical study (Example 1): safety assessment, risk of pneumonia; conditions: patients with blood eosinophil count <300 cells/μL
# Method: (§1) A clinical study was conducted to determine the efficacy of ensifentrine in treating COPD compared with placebo. Ensifentrine was administered by nebuliser at a dose of 3 mg twice daily (BID) for 24 weeks. The study was a multi-centre, randomized, double-blind, parallel-group, placebo-controlled trial with around 800 patients and 5:3 randomization.
# (§2) The study population included patients aged 40-80 years with moderate to severe COPD (FEV1 30%-70% p.n., FEV1/forced vital capacity (FVC) ratio <0.7, with mMRC≥2). The randomization stratified (a) the use of stable background maintenance LAMA or LABA therapy use (approx. 50%. yes or no) and (b) cigarette smoking (current or former). Inhaled corticosteroid (ICS) maintenance therapy was permitted in up to 20% of patients under certain provisions.
# [2] = system: patients with moderate to severe COPD; assay: Phase 3 clinical study (Example 1): moderate/severe COPD exacerbations, by blood eosinophil count
# Method: as §1, §2
# (§3) The primary endpoint of the study was change from baseline in average FEV1 area under the curve (AUC)0-12 h post-dose at week 12. Secondary endpoints of the study included: frequency of moderate/severe COPD exacerbations over 24 Weeks; time to first moderate/severe COPD exacerbation; and effect of blood eosinophil count of patients.
# Exacerbations were defined as worsening of 2 or more major symptoms (dyspnea, sputum volume, and sputum purulence) or worsening of any 1 major symptom together with any 1 of the following minor symptoms: sore throat, colds, fever without other cause, and increased cough or wheeze for at least 2 consecutive days. COPD exacerbations were considered to be of moderate severity if treatment with systemic corticosteroids and/or antibiotics was required and were considered to be severe if hospitalization was required.
# The blood eosinophil count of patients was determined as follows. • A blood sample (2 mL) was collected in 2 mL EDTA tube and mixed immediately using gentle inversion 8-10 times. • Eosinophils were tested as part of the Complete Blood Count (CBC) test panel and are part of the White Blood Cell (WBC) differential. • Testing was performed on the Beckman Coulter DxH 800, with testing performed daily on ambient samples. • The haematology parameters that constitute the CBC panel were produced using methods and technologies within the DxH800, including Coulter principle and VCSn laser flow cell technology. • The WBC differential was obtained using VCSn technology (Volume, Conductivity and Scatter) based on simultaneous measuring of cell volume, high frequency conductivity and laser light scatter. This produced an automated WBC differential. • During analysis, if any parameter was abnormal or outside established limits the instrument flagged this as abnormal and produced a stained blood slide. • Blood film review was completed using manual microscopy and a technician confirmed any abnormal findings. • The technician could have also provided a manual WBC differential during blood film review or confirm the automated WBC differential. • Finalised results were then provided.
# (§4) The investigational product and placebo were provided in 2.5 mL unit dose format in an ampule and administered via a nebuliser.
# [3] = system: patients with moderate to severe COPD; assay: Phase 3 clinical study (Example 1): lung function, average FEV1 AUC0-12h
# Method: as §1, §2, §3
# Baseline FEV1 is the mean of the two measurements taken before study medication on the day of first dosing, i.e. <40 minutes and just prior to dosing, both pre-dose on day 1.
# Average FEV1 AUC0-12 h is defined as area under the curve over 12 hours of the FEV1, divided by 12 hours.
# as §4
# [4] = system: patients with symptomatic, moderate-to-severe COPD; assay: Pooled analysis of two phase 3 trials (Example 2): moderate/severe exacerbation rate and time to first exacerbation
# [5] = Blood eosinophils > 150 cells/μL (n = 445)
# [6] = Blood eosinophils ≤ 150 cells/μL (n = 343)
# [7] = Blood eosinophils < 100 cells/μL (n = 10)
# [8] = Blood eosinophils ≥ 100 cells/μL (n = 74)
smiles,measurement,setting,value
"COc1cc2c(cc1OC)-c1c/c(=N\c3c(C)cc(C)cc3C)n(CCNC(N)=O)c(=O)n1CC2 [Ensifentrine, N-(2-{(2E)-9,10-dimethoxy-4-oxo-2-[(2,4,6-trimethylphenyl)imino]-6,7-dihydro-2H-pyrimido[6,1-a]isoquinolin-3(4H)-yl}ethyl)urea]",risk of pneumonia,[1],no significant increase
same,Exacerbation Rate Reduction,[2]; [5],43%
same,"Rate Ratio (95% Confidence Interval), COPD exacerbations",[2]; [5],"0.57 (0.34, 0.97)"
same,Exacerbation Rate Reduction,[2]; [6],42%
same,"Rate Ratio (95% Confidence Interval), COPD exacerbations",[2]; [6],"0.58 (0.30, 1.14)"
same,reduction in relative risk of moderate or severe COPD exacerbation vs placebo,"[2]; all patients, 3 mg BID, 24 weeks",approximately 40%
same,reduction in relative risk of moderate or severe COPD exacerbation vs placebo,[2]; subgroup blood eosinophil count <150 cells/μL,around 40%
same,reduction in relative risk of moderate or severe COPD exacerbation vs placebo,[2]; subgroup blood eosinophil count <300 cells/μL,around 50%
same,"Average FEV1 (AUC)0-12 h post-dose at Week 12: Change from Baseline, CFB Least Squares Mean (95% CI)","[3]; 3 mg BID by nebuliser, week 12, n = 498","48.2 (30.0, 66.5) mL"
same,Average FEV1 (AUC)0-12 h post-dose at Week 12: Placebo-corrected CFB LS Mean Diff (95% CI),"[3]; 3 mg BID by nebuliser, week 12, vs placebo","93.9 (64.5, 123.3) mL"
same,improvement in lung function,"[3]; all subgroups, 3 mg BID",statistically significant
same,"Hazard Ratio (95% Confidence Interval), time to first moderate/severe exacerbation",[4]; [7],"0.52 (0.22, 1.24)"
same,"Rate Ratio (95% Confidence Interval), moderate/severe exacerbation",[4]; [7],"0.50 (0.22, 1.17)"
same,"Hazard Ratio (95% Confidence Interval), time to first moderate/severe exacerbation",[4]; Blood eosinophils < 300 cells/μL (n = 60),"0.53 (0.37, 0.76)"
same,"Rate Ratio (95% Confidence Interval), moderate/severe exacerbation",[4]; Blood eosinophils < 300 cells/μL (n = 65),"0.53 (0.37, 0.75)"
same,"Hazard Ratio (95% Confidence Interval), time to first moderate/severe exacerbation",[4]; [8],"0.60 (0.43, 0.83)"
same,"Rate Ratio (95% Confidence Interval), moderate/severe exacerbation",[4]; [8],"0.60 (0.43, 0.84)"
same,"Hazard Ratio (95% Confidence Interval), time to first moderate/severe exacerbation",[4]; Blood eosinophils ≥ 300 cells/μL (n = 24),"0.79 (0.43, 1.45)"
same,"Rate Ratio (95% Confidence Interval), moderate/severe exacerbation",[4]; Blood eosinophils ≥ 300 cells/μL (n = 29),"0.82 (0.45, 1.51)"
same,reduction in exacerbation rate,[4]; blood eosinophil counts <100 cells/μL,about 50%
same,reduction in exacerbation rate,[4]; blood eosinophil counts ≤300 cells/μL,about 47%
same,number needed to treat (NNT) for the prevention of 1 exacerbation annually,[4]; pooled population,6.25 patients
same,reduction in the moderate/severe exacerbation rate compared with placebo,"[4]; pooled population, 3 mg BID over 24 weeks",41%
same,"reduction in risk (Cox proportional hazards model), time to first moderate/severe exacerbation","[4]; pooled population, 24 weeks",41%
same,"rate ratio, moderate/severe exacerbation rate","[4]; pooled population, 24 weeks, 95% CI 0.43-0.80",0.59
same,"hazard ratio, time to first moderate/severe exacerbation","[4]; pooled population, 24 weeks, 95% CI 0.44-0.81",0.59
same,time to first moderate/severe exacerbation compared with placebo,"[4]; pooled population, over 24 weeks, log rank test P=0.001",significantly delayed
same,transition from lower to higher exacerbation risk (group B to group E) compared with placebo,"[4]; post hoc analysis, 24 weeks",numerically delayed
